Patent US9763442B2, “In situ generation of peroxycarboxylic acids at alkaline pH, and methods of use thereof” (priority 2010, dated 2017)

What was measured:
[1] = Coupling of precipitated aqueous POOA by surfactants/hydrotropes; format: physicochemical; details: 1000 ppm POOA in DI Water
Description: A variety of surfactants were analyzed for coupling and/or dispersion stabilizing of a peroxycarboxylic acid composition generated according to the methods of the invention. In particular, a peroxyoctanoic acid (POOA) composition in deionized water produced according to the invention was analyzed for coupling and/or dispersion stabilization using the dispersing agents set forth in Table 14A.
Given the very limited water solubility of POOA in its protonated form, acidification of the alkaline perhydrolysis solutions of the same causes immediate precipitation and rapid phase separation. In this example various surfactants and hydrotropes were evaluated for their ability to couple the POOA. In Table 14A it can be seen that the most efficient agents for coupling an already precipitated solution of POOA were samples I and II.

[2] = Dispersion stability of acidified POOA solutions with dispersing agents; format: physicochemical; details: acidified POOA solution, 10,000 ppm H2SO4; oil sheen = fail
Description: The SLS, LAS and SOA dispersing agents were then further examined for efficacy in stabilizing and/or dispersing in 1% or lower sulfuric acid solutions. […] Solution 13 was made as 1 through 12 with the addition of 50 mL of 5 grain hard water to the aliquot of alkaline reaction solution followed by swirling with the surface aliquot and then additional 50 mL of 5 grain hard water, followed within about 5 seconds by 50 mL of 5 grain 2% sulfuric acid and swirled. Solution 14 was made by direct addition of 1% sulfuric acid (5 grain) without pre-dilution, but after moments of swirling with SLS aliquot. All concentrations are shown in ppm. […] The appearance of an oil sheen was regarded as a pass or fail.

CCCCCCCCCCCCOS(=O)(=O)[O-].[Na+] [I, Sodium Lauryl Sulfate]
Amount of (B) Required for Coupling [1]: 0.64 g/200 g aq POOA

CCCCCCCCS(=O)(=O)[O-].[Na+] [VII, Sodium octanesulfonate]
Amount of (B) Required for Coupling [1]: 6.60 g/200 g aq POOA

CCCCC(CC)COC(=O)CC(C(=O)OCC(CC)CCCC)S(=O)(=O)[O-].[Na+] (centres unmarked) [X, Sodium dioctyl Sulfosuccinates]
Amount of (B) Required for Coupling [1]: >2.0 g/200 g aq POOA

Alkyl Polyglycosides [VI]
Amount of (B) Required for Coupling [1]: 2.46 g/200 g aq POOA

Linear Aryl Sulfonate [II]
Amount of (B) Required for Coupling [1]: 0.65 g/200 g aq POOA
Amount of (B) Required for Coupling ([1]; listed as LAS): 0.64 g/200 g aq POOA
oil sheen at 23 h [2]: minimal surface oil

Sodium Lauryl Ether Sulfate [III]
Amount of (B) Required for Coupling [1]: >0.94 g/200 g aq POOA
